These are literature values, as cited in US6623768B1, “Pharmaceutically active composition extracted from Ferula hermonis and process of its extraction” (priority 2002, dated 2003).

In this data set the test system is adult female rats.

In the case of `COc1cc(C(=O)O[C@H]2CC(C)=CC[C@@]3(C)CC[C@@](O)(C(C)C)[C@H]23)ccc1O` [jaeschkeanadiol vanillate], the prevention of pregnancy result (administered orally on 1 to 7 post coitum, adult female rats) is recorded as “prevent pregnancy”. For the same compound, the “prevention of pregnancy after single dose” value (single oral administration of 5 mg per kg on the first day of post coitum, rats) is “prevented pregnancy”.
